Measured values as given in publication PMC10218596 (International Journal of Molecular Sciences, 2023).
Read-outs that look alike come from different tables or passages of the source. Where a SMILES comes first, the peptide text is derived from it. Bridges are numbered along the chain shown (N, C = ends).

Tests used:
hα6/α3β4V115I = target: T1, hα6/α3β4V115I (Homo sapiens, UniProt P30926+Q15825, V141I); assay: cell-based
T1 construct: splicing the N-terminal extracellular domain of the α6 subunit with the α3 subunit; mutant made by PCR mutagenesis; host or cells: Xenopus laevis oocytes injected with cRNA
T1 sequence (Q15825 26-239 limits assumed): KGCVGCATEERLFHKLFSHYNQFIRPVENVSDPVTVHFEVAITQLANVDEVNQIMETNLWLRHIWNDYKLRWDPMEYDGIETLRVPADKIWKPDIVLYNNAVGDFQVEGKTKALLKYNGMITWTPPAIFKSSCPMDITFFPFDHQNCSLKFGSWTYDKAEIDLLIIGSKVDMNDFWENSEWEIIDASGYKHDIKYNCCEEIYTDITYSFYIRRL
T1 sequence (P30926 22-498 V141I): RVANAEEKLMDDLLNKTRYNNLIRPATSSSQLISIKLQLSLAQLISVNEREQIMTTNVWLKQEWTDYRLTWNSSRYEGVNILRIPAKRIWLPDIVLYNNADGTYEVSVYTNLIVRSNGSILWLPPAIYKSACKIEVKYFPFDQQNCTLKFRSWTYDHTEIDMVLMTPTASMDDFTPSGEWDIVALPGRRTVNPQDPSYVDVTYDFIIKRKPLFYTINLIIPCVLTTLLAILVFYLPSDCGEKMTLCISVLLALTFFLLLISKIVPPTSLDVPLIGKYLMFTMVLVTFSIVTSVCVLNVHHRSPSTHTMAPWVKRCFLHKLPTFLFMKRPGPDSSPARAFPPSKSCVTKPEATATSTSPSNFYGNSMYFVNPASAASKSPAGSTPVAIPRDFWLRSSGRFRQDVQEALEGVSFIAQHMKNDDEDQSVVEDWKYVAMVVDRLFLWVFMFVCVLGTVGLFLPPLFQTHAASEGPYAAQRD

rat α6/α3β2β3 nAChR = conditions: cited from earlier work
h[α6N58K/α3]β4 = target: T2, h[α6N58K/α3]β4 (Homo sapiens, UniProt P30926+P32297+Q15825, N91K); type: cell-based
T2 construct: formed by splicing the N-terminal extracellular domain of the α6 subunit with the α3 subunit; human nAChR α3 subunit (CHRNA3); expressed in transfected cells; host or cells: Xenopus laevis oocytes injected with cRNA (plasmids from the University of Utah)
T2 sequence (Q15825+P32297 fused with the stated changes): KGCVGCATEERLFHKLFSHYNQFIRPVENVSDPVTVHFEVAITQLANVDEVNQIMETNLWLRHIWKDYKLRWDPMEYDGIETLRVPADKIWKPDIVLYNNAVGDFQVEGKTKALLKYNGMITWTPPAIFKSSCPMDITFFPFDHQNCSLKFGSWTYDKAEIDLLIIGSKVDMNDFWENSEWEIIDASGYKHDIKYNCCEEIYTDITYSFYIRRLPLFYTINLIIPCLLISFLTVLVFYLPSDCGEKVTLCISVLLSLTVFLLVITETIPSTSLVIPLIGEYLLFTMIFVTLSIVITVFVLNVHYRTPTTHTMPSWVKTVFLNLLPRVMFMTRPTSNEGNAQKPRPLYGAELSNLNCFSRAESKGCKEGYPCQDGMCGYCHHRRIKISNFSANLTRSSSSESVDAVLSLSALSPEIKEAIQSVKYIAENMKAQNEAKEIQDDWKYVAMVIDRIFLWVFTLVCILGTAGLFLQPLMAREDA
T2 sequence (P30926 22-498): as the sequence (P30926 22-498 V141I) above, with I120V counted along it

h[α6R63C/α3]β4 [1] = type: cell-based, human
h[α6R63C/α3]β4 [2] = target: T3, h[α6R63C/α3]β4 (Homo sapiens, UniProt P30926+P32297+Q15825, R96C); type: cell-based
T3 construct: formed by splicing the N-terminal extracellular domain of the α6 subunit with the α3 subunit; human nAChR α3 subunit (CHRNA3); expressed in transfected cells; host or cells: Xenopus laevis oocytes injected with cRNA (plasmids from the University of Utah)

hα6/α3β4K31R = target: T4, hα6/α3β4K31R (Homo sapiens, UniProt P30926+Q15825, K57R); type: cell-based
T4 construct: splicing the N-terminal extracellular domain of the α6 subunit with the α3 subunit; mutant made by PCR mutagenesis; host or cells: Xenopus laevis oocytes injected with cRNA

h[α6V32L, K61R/α3]β4 = type: cell-based, human
hα6/α3β4V53I = target: T5, hα6/α3β4V53I (Homo sapiens, UniProt P30926+Q15825, V79I); type: cell-based
T5 construct: splicing the N-terminal extracellular domain of the α6 subunit with the α3 subunit; mutant made by PCR mutagenesis; host or cells: Xenopus laevis oocytes injected with cRNA

hα6/α3β4S165I = target: T6, hα6/α3β4S165I (Homo sapiens, UniProt P30926+Q15825, S191I); type: cell-based
T6 construct: formed by splicing the N-terminal extracellular domain of the α6 subunit with the α3 subunit; human nAChR α3 subunit (CHRNA3); expressed in transfected cells; host or cells: Xenopus laevis oocytes injected with cRNA (plasmids from the University of Utah)

hα6/α3β4R70C = target: T7, hα6/α3β4R70C (Homo sapiens, UniProt P30926+Q15825, R96C); type: cell-based
T7 construct: splicing the N-terminal extracellular domain of the α6 subunit with the α3 subunit; mutant made by PCR mutagenesis; host or cells: Xenopus laevis oocytes injected with cRNA

hα6/α3β4T65A = target: T8, hα6/α3β4T65A (Homo sapiens, UniProt P30926+Q15825, T91A); type: cell-based
T8 construct: splicing the N-terminal extracellular domain of the α6 subunit with the α3 subunit; mutant made by PCR mutagenesis; host or cells: Xenopus laevis oocytes injected with cRNA

hα6/α3β4T161S = target: T9, hα6/α3β4T161S (Homo sapiens, UniProt P30926+Q15825, T187S); type: cell-based
T9 construct: formed by splicing the N-terminal extracellular domain of the α6 subunit with the α3 subunit; human nAChR α3 subunit (CHRNA3); expressed in transfected cells; host or cells: Xenopus laevis oocytes injected with cRNA (plasmids from the University of Utah)
T9 sequence (Q15825 26-239 limits assumed): as the sequence (Q15825 26-239 limits assumed) above
T9 sequence (P30926 22-498 T187S): as the sequence (P30926 22-498 V141I) above, with I120V, T166S counted along it

h[α6M67T/α3]β4 [3] = type: cell-based, human
h[α6M67T/α3]β4 [4] = target: T10, h[α6M67T/α3]β4 (Homo sapiens, UniProt P30926+P32297+Q15825, M100T); type: cell-based
T10 construct: formed by splicing the N-terminal extracellular domain of the α6 subunit with the α3 subunit; fusion partner: remainder of the human α3 subunit (CHRNA3); expressed in transfected cells; host or cells: Xenopus laevis oocytes injected with cRNA

hα6/α3β4Y133H = target: T11, hα6/α3β4Y133H (Homo sapiens, UniProt P30926+Q15825, Y159H); type: cell-based
T11 construct: splicing the N-terminal extracellular domain of the α6 subunit with the α3 subunit; mutant made by PCR mutagenesis; host or cells: Xenopus laevis oocytes injected with cRNA

hα6/α3β4Q33E = target: T12, hα6/α3β4Q33E (Homo sapiens, UniProt P30926+Q15825, Q59E); type: cell-based
T12 construct: splicing the N-terminal extracellular domain of the α6 subunit with the α3 subunit; mutant made by PCR mutagenesis; host or cells: Xenopus laevis oocytes injected with cRNA
T12 sequence (Q15825 26-239 limits assumed): as the sequence (Q15825 26-239 limits assumed) above
T12 sequence (P30926 22-498 Q59E): as the sequence (P30926 22-498 V141I) above, with Q38E, I120V counted along it

h[α6I176V/α3]β4 = target: T13, h[α6I176V/α3]β4 (Homo sapiens, UniProt P30926+P32297+Q15825, I209V); type: cell-based
T13 construct: formed by splicing the N-terminal extracellular domain of the α6 subunit with the α3 subunit; fusion partner: remainder of the human α3 subunit (CHRNA3); expressed in transfected cells; host or cells: Xenopus laevis oocytes injected with cRNA

h[α6K81N/α3]β4 [5] = target: T14, h[α6K81N/α3]β4 (Homo sapiens, UniProt P30926+P32297+Q15825, K114N); type: cell-based
T14 construct: formed by splicing the N-terminal extracellular domain of the α6 subunit with the α3 subunit; fusion partner: remainder of the human α3 subunit (CHRNA3); expressed in transfected cells; host or cells: Xenopus laevis oocytes injected with cRNA

h[α6K81N/α3]β4 [6] = type: cell-based, human
h[α6V32L/α3]β4 [7] = target: T15, h[α6V32L/α3]β4 (Homo sapiens, UniProt P30926+P32297+Q15825, V65L); assay: cell-based
T15 construct: formed by splicing the N-terminal extracellular domain of the α6 subunit with the α3 subunit; human nAChR α3 subunit (CHRNA3); expressed in transfected cells; host or cells: Xenopus laevis oocytes injected with cRNA (plasmids from the University of Utah)
T15 sequence (Q15825+P32297 fused with the stated changes): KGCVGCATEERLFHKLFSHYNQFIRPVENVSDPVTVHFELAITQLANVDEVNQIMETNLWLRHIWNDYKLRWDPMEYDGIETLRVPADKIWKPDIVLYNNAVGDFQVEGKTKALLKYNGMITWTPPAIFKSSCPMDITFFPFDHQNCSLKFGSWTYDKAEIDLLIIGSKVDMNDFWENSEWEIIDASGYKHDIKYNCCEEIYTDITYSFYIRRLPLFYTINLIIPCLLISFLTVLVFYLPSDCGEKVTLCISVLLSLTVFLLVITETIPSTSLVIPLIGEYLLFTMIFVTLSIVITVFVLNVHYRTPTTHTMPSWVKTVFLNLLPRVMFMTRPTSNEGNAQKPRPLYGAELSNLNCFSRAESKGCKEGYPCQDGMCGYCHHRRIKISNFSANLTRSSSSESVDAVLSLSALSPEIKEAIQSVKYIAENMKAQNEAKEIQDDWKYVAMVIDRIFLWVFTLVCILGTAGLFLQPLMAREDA
T15 sequence (P30926 22-498): as the sequence (P30926 22-498 V141I) above, with I120V counted along it

h[α6V32L/α3]β4 [8] = assay: cell-based; set-up: species or system human
h[α6N110D/α3]β4 = target: T16, h[α6N110D/α3]β4 (Homo sapiens, UniProt P30926+P32297+Q15825, N143D); type: cell-based
T16 construct: formed by splicing the N-terminal extracellular domain of the α6 subunit with the α3 subunit; fusion partner: remainder of the human α3 subunit (CHRNA3); expressed in transfected cells; host or cells: Xenopus laevis oocytes injected with cRNA
T16 sequence (Q15825+P32297 fused with the stated changes): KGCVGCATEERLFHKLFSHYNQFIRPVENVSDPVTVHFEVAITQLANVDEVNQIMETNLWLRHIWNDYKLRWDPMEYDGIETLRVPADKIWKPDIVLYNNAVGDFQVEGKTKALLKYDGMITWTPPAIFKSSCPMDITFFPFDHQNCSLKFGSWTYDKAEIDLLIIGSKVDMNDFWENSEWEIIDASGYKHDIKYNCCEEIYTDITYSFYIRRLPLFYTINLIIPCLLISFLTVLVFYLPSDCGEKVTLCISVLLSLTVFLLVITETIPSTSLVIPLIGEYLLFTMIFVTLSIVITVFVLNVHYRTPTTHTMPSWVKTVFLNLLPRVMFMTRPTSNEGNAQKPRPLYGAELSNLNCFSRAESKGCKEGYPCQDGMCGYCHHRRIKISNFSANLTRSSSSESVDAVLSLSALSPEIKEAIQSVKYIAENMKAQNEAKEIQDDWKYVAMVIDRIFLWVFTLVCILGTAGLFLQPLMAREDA
T16 sequence (P30926 22-498): as the sequence (P30926 22-498 V141I) above, with I120V counted along it

[9] = read-out: inhibition of the current response to 100 μM ACh

CC(C)C[C@@H]1NC(=O)[C@H](CC(=O)O)NC(=O)[C@@H]2CCCN2C(=O)[C@H](Cc2c[nH]cn2)NC(=O)[C@H](CCCCN)NC(=O)[C@H](CC(N)=O)NC(=O)[C@H](CCCNC(=N)N)NC(=O)[C@@H]2CSSC[C@H](NC(=O)CN)C(=O)N[C@@H](CSSC[C@@H](C(N)=O)NC1=O)C(=O)N[C@@H](CO)C(=O)N[C@@H](CC(=O)O)C(=O)N1CCC[C@H]1C(=O)N1CCC[C@H]1C(=O)N2 [TxIB] (H-GCCSDPPCRNKHPDLC-NH2; disulfide 2-8, 3-16)
Hill Slope (hα6/α3β4V115I): 0.8 (0.7–0.9) | Ratio (change in TxIB IC50 relative to hα6/α3β4) (hα6/α3β4V115I): 2.8 | activity at 10 µM (hα6/α3β4V115I; [9]): 20.1 ± 3.86% | IC50 (rat α6/α3β2β3 nAChR): 0.028 µM | Hill Slope (h[α6N58K/α3]β4): 0.9 (0.8–1.1) | Ratio (change in TxIB IC50 relative to hα6/α3β4) (h[α6N58K/α3]β4): 0.9 | Ratio (change in TxIB IC50 relative to hα6/α3β4) (h[α6R63C/α3]β4 [1]): 0.9 | Hill Slope (h[α6R63C/α3]β4 [2]): 0.9 (0. 8–1.1) | Hill Slope (hα6/α3β4K31R): 0.8 (0.7–0.9) | Ratio (change in TxIB IC50 relative to hα6/α3β4) (hα6/α3β4K31R): 2.2 | Ratio (change in TxIB IC50 relative to hα6/α3β4) (h[α6V32L, K61R/α3]β4): 8.1 | time to full restoration of currents blocked by TxIB (h[α6V32L, K61R/α3]β4): ≤ 1 min | IC50 (h[α6V32L, K61R/α3]β4; read-out: IC50): 4.3 µM | IC50 (h[α6V32L, K61R/α3]β4; read-out: IC50 (95% CI)): 4.34 µM | activity (h[α6V32L, K61R/α3]β4; [9]): 31.9 ± 8.05% | Hill Slope (hα6/α3β4V53I): 0.8 (0.7–0.9) | Ratio (change in TxIB IC50 relative to hα6/α3β4) (hα6/α3β4V53I): 1.1 | Hill Slope (hα6/α3β4S165I): 0.7 (0.6–0.9) | Ratio (change in TxIB IC50 relative to hα6/α3β4) (hα6/α3β4S165I): 1 | Hill Slope (hα6/α3β4R70C): 0.8 (0.7–1.0) | Ratio (change in TxIB IC50 relative to hα6/α3β4) (hα6/α3β4R70C): 0.9 | Hill Slope (hα6/α3β4T65A): 0.9 (0.8–1.0) | Ratio (change in TxIB IC50 relative to hα6/α3β4) (hα6/α3β4T65A): 1 | Hill Slope (hα6/α3β4T161S): 0.8 (0.6–0.9) | Ratio (change in TxIB IC50 relative to hα6/α3β4) (hα6/α3β4T161S): 1.8 | Ratio (change in TxIB IC50 relative to hα6/α3β4) (h[α6M67T/α3]β4 [3]): 1.1 | Hill Slope (h[α6M67T/α3]β4 [4]): 0.9 (0.7–1.0) | Hill Slope (hα6/α3β4Y133H): 0.8 (0.7–1.0) | Ratio (change in TxIB IC50 relative to hα6/α3β4) (hα6/α3β4Y133H): 1.3 | Hill Slope (hα6/α3β4Q33E): 0.9 (0.7–1.0) | Ratio (change in TxIB IC50 relative to hα6/α3β4) (hα6/α3β4Q33E): 0.8 | Hill Slope (h[α6I176V/α3]β4): 0.8 (0.7–0.9) | Ratio (change in TxIB IC50 relative to hα6/α3β4) (h[α6I176V/α3]β4): 0.8 | Hill Slope (h[α6K81N/α3]β4 [5]): 0.8 (0.7–0.9) | Ratio (change in TxIB IC50 relative to hα6/α3β4) (h[α6K81N/α3]β4 [6]): 1.2 | Hill Slope (h[α6V32L/α3]β4 [7]): 0.7 (0.7–0.8) | activity at 10 µM (h[α6V32L/α3]β4 [7]; [9]): 25.3 ± 5.23% | Ratio (change in TxIB IC50 relative to hα6/α3β4) (h[α6V32L/α3]β4 [8]): 4.2 | Hill Slope (h[α6N110D/α3]β4): 0.9 (0.8–1.0) | Ratio (change in TxIB IC50 relative to hα6/α3β4) (h[α6N110D/α3]β4): 1.6
